From US12692283B2, “Lignan derivative, preparation method therefor and use thereof” (SHANGHAI INSTITUTE OF MATERIA MEDICA, CHINESE ACADEMY OF …, priority 2021, dated 2026)

Columns and labels:
WI-38 senescent cells = assay: Viability of doxorubicin-induced senescent WI-38 human fibroblasts (MTT); assay type: cell-based; details: WI-38, 72 h, senescent cells induced by 200 nM doxorubicin, co-incubation 3 days
Experimental: WI-38 cells were cultured in DMEM (high glucose, 4.5 g/L) culture medium (supplemented with 10% FBS, 1% PS).
The experimental testing steps for the effects of compounds on the viability of WI-38 senescent cells were as follows. WI-38 cells were seeded in a 96-well plate at 20,000 cells/well. After overnight, 200 nM doxorubicin was added to each well and incubated for 3 days. Then the medium was replaced with normal culture medium. After 1 day of incubation, the culture medium was replaced with 200 nM doxorubicin and incubated for 3 days to successfully induce senescence of WI-38 cells. Subsequently, different concentrations of compounds were added (40 μM was the highest concentration, and diluted according to ¼, a total of 7 concentrations), and after co-incubation for 3 days, 10 μl of MTT (5 mg/ml) was added to each well and incubated for 4 hours. DMSO (150 μl) was added to each well after aspirating the culture medium.

MLO-Y4 senescent cells = assay: Viability of doxorubicin-induced senescent MLO-Y4 mouse osteoid cells (MTT); assay type: cell-based; details: MLO-Y4, 72 h, senescent cells induced by 100 nM doxorubicin, co-incubation 3 days, read-out: MOL-Y4 IC50
Experimental: MOL-Y4 cells were cultured in MEM culture medium (supplemented with 10% FBS, 1% PS).
The experimental steps for testing the effects of compounds on the viability of MOL-Y4 senescent cells were as follows. MOL-Y4 cells were seeded in a 96-well plate at 20,000 cells/well. After overnight, 100 nM doxorubicin was added to each well and incubated for 3 days. Then the medium was replaced with normal culture medium. After 1 day of incubation, the culture medium was replaced with 100 nM doxorubicin and incubated for 3 days to successfully induce senescence of MOL-Y4 cells. Subsequently, different concentrations of compounds were added (40 μM was the highest concentration, and diluted according to ¼, a total of 7 concentrations), and after co-incubation for 3 days, 10 μl of MTT (5 mg/ml) was added to each well and incubated for 4 hours. DMSO (150 μl) was added to each well after aspirating the culture medium.

OCI-AML3 cells = assay: Viability of human acute myeloid leukemia cells OCI-AML3 (CCK8); assay type: cell-based; details: OCI-AML-3, 72 h, incubation 3 days
Experimental: (§1) OCI-AML3 cells, suspension cells, were cultured in RPIM1640+10% FBS+1% PS culture medium at 37° C. and 5% CO2. OCI-AML3 was seeded in a 96-well plate at 20,000 cells/well, and different concentrations of compounds were added (40 μM was the highest concentration, diluted according to ¼, a total of 7 concentrations). After incubation for 3 days, 10 μl CCK8 reagent was added to each well. After incubation for 2 hours, OD450 was detected by a microplate reader, then the effect of the compound on cell viability, IC50 value was calculated.

NB-1 cells = assay: Viability of human neuroblastoma cells NB-1 (CCK8); assay type: cell-based; details: NB1, 72 h, incubation 3 days
Experimental: as §1, with “NB-1” for “OCI-AML3”, “μL” for “μl”

[1] = system: mitochondrial respiratory chain complex I; details: ACS Chemical Biology, 2013, 8 (1), 257-267; cited from earlier work
[2] = Acta Pharmacologica Sinica, 2018, 39, 787-801, cited from earlier work
[3] = molecular target: Mitochondrial Respiratory Complex I (Complex I) (Mus musculus, UniProt P03888+Q91WD5+Q9DC70); assay: Inhibitory activity on mitochondrial respiratory Complex I (NADH activity, mitochondria from mouse heart tissue); assay type: biochemical; details: NADH 50 μM, read at 340 nm, 30 μg mouse heart mitochondrial protein
Sequence of Mitochondrial Respiratory Complex I (Complex I) (P03888 whole entry): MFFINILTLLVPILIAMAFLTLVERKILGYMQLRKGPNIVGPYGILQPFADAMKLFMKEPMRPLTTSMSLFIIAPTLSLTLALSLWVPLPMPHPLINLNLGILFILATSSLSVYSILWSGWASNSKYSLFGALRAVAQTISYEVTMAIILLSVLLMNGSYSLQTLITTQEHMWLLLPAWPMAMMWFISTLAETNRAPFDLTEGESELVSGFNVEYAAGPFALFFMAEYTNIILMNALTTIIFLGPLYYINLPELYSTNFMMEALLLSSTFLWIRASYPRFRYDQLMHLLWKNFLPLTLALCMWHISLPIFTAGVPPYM
Sequence of Mitochondrial Respiratory Complex I (Complex I) (Q91WD5 34-463): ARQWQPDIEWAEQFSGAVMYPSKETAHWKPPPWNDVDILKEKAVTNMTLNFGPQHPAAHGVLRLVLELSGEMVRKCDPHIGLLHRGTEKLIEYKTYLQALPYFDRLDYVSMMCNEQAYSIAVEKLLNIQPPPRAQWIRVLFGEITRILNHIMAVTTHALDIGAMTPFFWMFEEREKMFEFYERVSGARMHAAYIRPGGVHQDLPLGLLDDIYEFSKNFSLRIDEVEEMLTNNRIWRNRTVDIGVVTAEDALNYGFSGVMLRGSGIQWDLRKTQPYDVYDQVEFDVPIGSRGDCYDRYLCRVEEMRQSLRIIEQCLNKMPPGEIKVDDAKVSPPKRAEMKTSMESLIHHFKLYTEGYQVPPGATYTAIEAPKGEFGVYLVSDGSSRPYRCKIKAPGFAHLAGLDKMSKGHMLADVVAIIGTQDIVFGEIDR
Sequence of Mitochondrial Respiratory Complex I (Complex I) (Q9DC70 36-224): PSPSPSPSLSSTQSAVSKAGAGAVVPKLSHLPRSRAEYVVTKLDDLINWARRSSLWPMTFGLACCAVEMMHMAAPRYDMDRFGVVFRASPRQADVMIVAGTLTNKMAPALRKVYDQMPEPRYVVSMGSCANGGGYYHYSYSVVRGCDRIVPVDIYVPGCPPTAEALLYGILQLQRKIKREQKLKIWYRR
Experimental: Mitochondria were extracted from mouse heart tissue. […] of solution A (0.22M mannitol, 0.07M sucrose, 0.02M HEPES, 2 mM Tris-HCl, 1 mM EDTA, pH 7.2, 0.4% BSA) was added to the heart tissue. The tissue was cut up and then washed three times with solution A to remove blood and connective tissue, then homogenized using a glass homogenizer about 30 times. The suspension was centrifuged at 3000 g for 1.5 min, and the supernatant was retained. The precipitate was resuspended in solution A with protease inhibitor and re-centrifuged to collect the supernatant. The supernatants from two collections were mixed for the next step. The supernatant was centrifuged at 17500 g for 2.5 min and the supernatant was discarded. The precipitate was resuspended in solution A with protease inhibitor, centrifuged at 17500 g for 4.5 min, resuspended in solution B (2.5 mM potassium phosphate, 5 mM MgCl2 pH 7.2) and repeatedly frozen and thawed to obtain a solution of the mitochondrial complex for subsequent assay. To measure the NADH activity of Complex I, 2.5 mL of reaction solution containing 50 mM HEPES, 5 mM MgCl2 pH 7.5 and 30 μg of mitochondrial protein from the above process was prepared. The compound to be detected was added and equilibrated for 5 minutes, and then was dispensed into each well. Finally, NADH (50 μM) was quickly added, and data at […] were read every 30 sec for a total of 15 minutes. Calculation: the NADH reaction rates for different compounds were calculated, then the inhibition rate (compound reaction rate/control reaction rate×100) was calculated, and the IC50 value of the compound was finally calculated.

[4] = Oral pharmacokinetics of Compound A4-1a and Arctigenin in ICR mice (plasma, liver, colon); assay type: in vivo, mouse; details: oral 30 mg/kg, 1-8 h
Experimental: Arctigenin and Compound A4-1a were administered orally at 30 mg/kg to overnight-fasted ICR mice (male, n=3/time point), respectively. The mice were fed 2 hours after administration. Samples were collected before administration and 1 h, 2 h, 4 h, and 8 h after administration. Blood was collected in centrifuge tubes pretreated with heparin sodium and bis(4-nitrophenyl)phosphate (BNPP). After centrifugation at 11,000 rpm for 5 min at 4° C., plasma was obtained and stored at −80° C. Next, 100 […] of plasma sample, precipitated, vortexed for 1 min, and centrifuged (11,000 rpm) for 5 min. A mixture of 20 […] of methanol/acetonitrile (1:1, v/v) was taken to analyze the concentration of the compound by LC-MS/MS. Liver tissue was stored at −80° C. until analysis. After removal of contents, the colon was quickly washed with cold saline containing BNPP and stored at −80° C. until analysis. Analysis method: After 10 times the weight of MeOH/ACN (1:1, v/v) was added to the tissue samples, the homogenate was obtained by homogenizing for 120 s with a homogenizer at 50 Hz and then centrifuged (11000 rpm) for 5 min, and the supernatant was collected. 20 μL of the supernatant was redissolved in 20 μL of ACN/H2O (1:1, v/v), and the compound concentration was analyzed in LC-MS/MS.

| IC50 (OCI-AML3 cells) [nM] | IC50 (NB-1 cells) [nM] | SMILES | IC50 [3] [nM] | also measured |
| --- | --- | --- | --- | --- |
|  |  | CC1(C)CCC(c2ccc(Cl)cc2)=C(CN2CCN(c3ccc(C(=O)NS(=O)(=O)c4ccc(N[C@H](CCN5CCOCC5)CSc5ccccc5)c(S(=O)(=O)C(F)(F)F)c4)cc3)CC2)C1 [ABT263, reference compound] |  | IC50 (WI-38 senescent cells): 5600 nM; IC50 (MLO-Y4 senescent cells): 235 nM |
| 589 | 2380 | COc1cc(C[C@H]2C(=O)OC[C@@H]2Cc2ccc(OC)c(OC)c2)ccc1O [Arctigenin] |  | inhibition of mitochondrial respiratory chain complex I [1]: moderately potent and selective inhibitor; metabolism after oral administration [2]: easily metabolized after oral administration; bioavailability ([2]; oral): low bioavailability; pharmacokinetic properties ([2]; oral): poor pharmacokinetic properties |
| 81 | 424 | COc1cc(C[C@@]2(C)C(=O)OC[C@@H]2Cc2ccc(OC)c(OC)c2)ccc1O [Compound A4-1a, (3R,4R)-4-(3,4-dimethoxybenzyl)-3-(4-hydroxy-3-methoxybenzyl)-3-methyldihydrofuran-2 (3H)-one] | 507 | IC50 (WI-38 senescent cells): 38 nM; IC50 (MLO-Y4 senescent cells): 40 nM; drug concentrations in plasma and tissues compared with Arctigenin [4]: significantly higher drug concentrations in plasma and tissues |
|  |  | COc1cc(C[C@]2(F)C(=O)OC[C@@H]2Cc2ccc(OC)c(OC)c2)ccc1O [Compound A4-1b] | 1270 |  |
|  |  | COc1cc(C[C@@]2(F)C(=O)OC[C@@H]2Cc2ccc(OC)c(OC)c2)ccc1O [Compound A4-1c] | 185 |  |
| 169 | 546 | COc1cc(C[C@@]2(Cl)C(=O)OC[C@@H]2Cc2ccc(OC)c(OC)c2)ccc1O [Compound A4-1d] |  |  |
|  |  | COc1cc(C[C@@]2(CCl)C(=O)OC[C@@H]2Cc2ccc(OC)c(OC)c2)ccc1O [Compound A4-1e] | 473 | IC50 (WI-38 senescent cells): 1000 nM; IC50 (MLO-Y4 senescent cells): 150 nM |
| 91 | 433 | COc1cc(C[C@@]2(CO)C(=O)OC[C@@H]2Cc2ccc(OC)c(OC)c2)ccc1O [Compound A4-1i] |  |  |
|  |  | COc1ccc(C[C@H]2COC(=O)[C@@H]2Cc2ccc(O)c(OCCc3ccccc3)c2)cc1OC [Compound B9-1a, (3R,4R)-4-(3,4-dimethoxybenzyl)-3-(4-hydroxy-3-phenylethoxybenzyl)dihydrofuran-2 (3H)-one] | 54 |  |
| 274 | 175 | COc1ccc(C[C@H]2COC(=O)[C@@H]2Cc2ccc(O)c(OCC(F)(F)F)c2)cc1OC [Compound B9-1e] |  |  |
|  |  | COc1ccc(C[C@H]2COC(=O)[C@@H]2Cc2ccc(O)c(OCc3ccccc3)c2)cc1OC [Compound B9-1p] | 465 |  |
|  |  | COc1ccc(C[C@H]2COC(=O)[C@@H]2Cc2ccc(O)c(OCCc3ccc(C(F)(F)F)cc3)c2)cc1OC [Compound B9-1q] | 64 |  |
|  |  | COc1ccc(C[C@H]2COC(=O)[C@@H]2Cc2ccc(O)c(OCCn3cccc3)c2)cc1OC [Compound B9-1r] | 316 |  |
|  |  | COc1ccc(C[C@H]2COC(=O)[C@@H]2Cc2ccc(O)c(OCC(O)c3ccccc3)c2)cc1OC (stereo partly shown) [Compound B9-1u] | 564 |  |
|  |  | COc1ccc(C[C@H]2COC(=O)[C@@H]2Cc2ccc(O)c(OCCCc3ccccc3)c2)cc1OC [Compound B9-1v] | 34 |  |
|  |  | COc1ccc(C[C@H]2COC(=O)[C@@H]2Cc2ccc(O)c(OCC(O)c3ccc(C(F)(F)F)cc3)c2)cc1OC (stereo partly shown) [Compound B9-1x] | 650 |  |
|  |  | COc1ccc(C[C@H]2COC(=O)[C@]2(C)Cc2ccc(O)c(OCCc3ccccc3)c2)cc1OC [Compound B11-1a, (3R,4R)-4-(3,4-dimethoxybenzyl)-3-(4-hydroxy-3-phenylethoxybenzyl)-3-methyldihydrofuran-2 (3H)-one] | 646 |  |
| 47 | 626 | COc1ccc(C[C@H]2COC(=O)[C@]2(C)Cc2ccc(O)c(OCC(F)(F)F)c2)cc1OC [Compound B11-1b] | 668 |  |
| 289 | 446 | COc1ccc(C[C@H]2COC(=O)[C@]2(C)Cc2ccc(O)c(OCC(O)c3ccc(C(F)(F)F)cc3)c2)cc1OC (stereo partly shown) [Compound B11-1c] |  |  |
|  |  | COc1cc(C[C@H]2COC(=O)[C@]2(C)Cc2ccc(O)c(OC)c2)ccc1O [Compound B11-1e] | 1370 |  |
|  |  | COc1cc(C[C@@]2(C)C(=O)OC[C@@H]2Cc2ccc3c(c2)OCO3)ccc1O [Compound B11-1f] | 420 |  |
|  |  | COc1ccc(C[C@H]2COC(=O)[C@]2(C)Cc2ccc(OC)c(OC)c2)cc1OC [Compound B11-1h] | 13200 |  |

| SMILES | IC50 (OCI-AML3 cells) [nM] | IC50 (NB-1 cells) [nM] | IC50 [3] [nM] | also measured |
| --- | --- | --- | --- | --- |
| [2H]C([2H])([2H])Oc1cc(C[C@H]2C(=O)OC[C@@H]2Cc2ccc(OC)c(OC)c2)ccc1O [Compound B9-1d] | 602 |  | 696 |  |
